Measured values published in patent US20190241573A1, “ISOQUINOLINE DERIVATIVES AS PERK INHIBITORS” (GlaxoSmithKline Intellectual Property Development Limited, priority 2016, published 2019).
Read-outs that look alike come from different tables or passages of the source.

What was measured:
[1] = target: T1, GST-PERK enzyme (Homo sapiens, UniProt Q9NZJ5); assay: PERK enzyme assay; format: biochemical; conditions: biotin-eIF2α substrate, 60 minutes
T1 sequence (Q9NZJ5 30-1116): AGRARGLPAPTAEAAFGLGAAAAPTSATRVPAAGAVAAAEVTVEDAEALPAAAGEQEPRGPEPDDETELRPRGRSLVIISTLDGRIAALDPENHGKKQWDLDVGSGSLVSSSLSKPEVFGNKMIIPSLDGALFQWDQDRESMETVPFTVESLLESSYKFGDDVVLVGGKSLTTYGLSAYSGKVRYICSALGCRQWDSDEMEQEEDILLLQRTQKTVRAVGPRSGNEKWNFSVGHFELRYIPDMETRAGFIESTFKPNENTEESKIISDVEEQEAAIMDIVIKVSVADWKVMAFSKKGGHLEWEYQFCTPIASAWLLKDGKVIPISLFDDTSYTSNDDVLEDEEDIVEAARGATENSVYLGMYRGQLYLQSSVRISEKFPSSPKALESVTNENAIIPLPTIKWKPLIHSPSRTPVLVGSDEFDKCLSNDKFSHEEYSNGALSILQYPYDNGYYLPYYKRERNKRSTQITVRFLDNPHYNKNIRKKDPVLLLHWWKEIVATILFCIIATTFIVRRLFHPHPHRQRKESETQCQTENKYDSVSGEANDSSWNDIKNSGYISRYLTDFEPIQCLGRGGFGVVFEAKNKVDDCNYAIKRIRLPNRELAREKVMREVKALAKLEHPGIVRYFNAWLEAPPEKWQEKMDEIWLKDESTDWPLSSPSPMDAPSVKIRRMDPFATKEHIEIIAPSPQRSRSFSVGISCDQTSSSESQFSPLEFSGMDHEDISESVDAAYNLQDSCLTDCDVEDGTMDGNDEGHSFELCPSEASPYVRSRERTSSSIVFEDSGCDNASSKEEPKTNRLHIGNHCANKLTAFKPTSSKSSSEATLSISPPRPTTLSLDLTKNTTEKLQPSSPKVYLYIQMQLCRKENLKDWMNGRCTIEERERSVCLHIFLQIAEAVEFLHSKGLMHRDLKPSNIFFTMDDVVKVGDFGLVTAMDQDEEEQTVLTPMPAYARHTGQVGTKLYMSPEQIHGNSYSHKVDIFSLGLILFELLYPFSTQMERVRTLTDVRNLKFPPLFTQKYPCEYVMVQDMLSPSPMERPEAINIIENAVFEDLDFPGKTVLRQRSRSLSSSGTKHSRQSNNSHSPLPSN
Description: Example 61: PERK Enzyme Assay
Compounds of the invention were assayed for PERK enzyme inhibitory activity with modifications to previously reported conditions (Axten et al. J. Med. Chem., 2012, 55, 7193-7207). Briefly, various concentrations of compounds (maximum 1% DMSO) were dispensed into 384-well plates containing GST-PERK enzyme. ATP and biotin-elF2α were added and after 60 minutes the reaction was quenched. After 2 hrs, a fluorescence plate reader was used to measure inhibition and pIC50s were calculated. The activity of compound 1 was determined at an ATP concentration=5 μM. For compounds 2-20 the PERK activity was determined at ATP concentration=500 μM ATP.

[2] = system: prion infected mice; conditions: cited from earlier work
[3] = 500 μM ATP, read-out: average PERK Enzyme (500 μM ATP) pIC50 (converted)

SMILES: Cn1cc(-c2ccc3cc(Cc4ccccc4)ncc3c2)c2c(N)ncnc21 [Example 1, 5-(3-Benzylisoquinolin-7-yl)-7-methyl-7H-pyrrolo[2,3-d]pyrimidin-4-amine]
- IC50 ([1]; 5 μM ATP, read-out: average PERK Enzyme (5 μM ATP) pIC50 (converted)): 15.8 nM

SMILES: Cn1cc(-c2ccc3cc(Cc4cc(F)cc(F)c4)ncc3c2F)c2c(N)ncnc21 [Example 4, 5-(3-(3,5-Difluorobenzyl)-8-fluoroisoquinolin-7-yl)-7-methyl-7H-pyrrolo[2,3-d]pyrimidin-4-amine]
- IC50 [1, 3]: 251 nM

SMILES: CCn1cc(-c2ccc3cc(Cc4cc(F)cc(F)c4)ncc3c2F)c2c(N)ncnc21 [Example 6, 5-(3-(3,5-difluorobenzyl)-8-fluoroisoquinolin-7-yl)-7-ethyl-7H-pyrrolo[2,3-d]pyrimidin-4-amine]
- IC50 [1, 3]: 158 nM

SMILES: Cc1cc(C)cc(C(=O)c2cc3ccc(-c4cn(C)c5ncnc(N)c45)cc3cn2)c1 [Example 15, (7-(4-amino-7-methyl-7H-pyrrolo[2,3-d]pyrimidin-5-yl)isoquinolin-3-yl)(3,5-dimethylphenyl)methanone]
- IC50 [1, 3]: > 3980 nM

SMILES: Cn1cc(-c2ccc3cc(Cc4cc(F)ccc4F)ncc3c2F)c2c(N)ncnc21 [Example 17, 5-(3-(2,5-difluorobenzyl)-8-fluoroisoquinolin-7-yl)-7-methyl-7H-pyrrolo[2,3-d]pyrimidin-4-amine]
- IC50 [1, 3]: 1000 nM

SMILES: Cn1cc(-c2ccc3cc(Cc4cc(F)cc(C(F)(F)F)c4)ncc3c2F)c2c(N)ncnc21 [Example 18, 5-(8-fluoro-3-(3-fluoro-5-(trifluoromethyl)benzyl)isoquinolin-7-yl)-7-methyl-7H-pyrrolo[2,3-d]pyrimidin-4-amine]
- IC50 [1, 3]: > 3980 nM

SMILES: Cn1cc(-c2ccc3cc(Cc4cccc(C(F)(F)F)c4)ncc3c2F)c2c(N)ncnc21 [Example 19, 5-(8-fluoro-3-(3-(trifluoromethyl)benzyl)isoquinolin-7-yl)-7-methyl-7H-pyrrolo[2,3-d]pyrimidin-4-amine]
- IC50 [1, 3]: > 3980 nM

SMILES: Nc1ncnc2c1c(-c1ccc3cc(Cc4cc(F)cc(F)c4)ncc3c1F)cn2CC(F)(F)F [Example 23, 5-(3-(3,5-difluorobenzyl)-8-fluoroisoquinolin-7-yl)-7-(2,2,2-trifluoroethyl)-7H-pyrrolo[2,3-d]pyrimidin-4-amine]
- IC50 [1, 3]: > 3980 nM

SMILES: Cc1nc(N)c2c(-c3ccc4cc(Cc5cc(F)cc(F)c5)ncc4c3F)cn(C)c2n1 [Example 25, 5-(3-(3,5-difluorobenzyl)-8-fluoroisoquinolin-7-yl)-2,7-dimethyl-7H-pyrrolo[2,3-d]pyrimidin-4-amine]
- IC50 [1, 3]: > 3980 nM

SMILES: Cc1nc(N)c2c(-c3ccc4cc(Cc5cc(F)cc(F)c5)ncc4c3F)cn(C3CC3)c2n1 [Example 28, 7-cyclopropyl-5-(3-(3,5-difluorobenzyl)-8-fluoroisoquinolin-7-yl)-2-methyl-7H-pyrrolo[2,3-d]pyrimidin-4-amine]
- IC50 [1, 3]: 2510 nM

SMILES: Nc1ncnc2c1c(-c1ccc3cc(Cc4cc(F)cc(F)c4)ncc3c1F)nn2C1CC1 [Example 29, 1-cyclopropyl-3-(3-(3,5-difluorobenzyl)-8-fluoroisoquinolin-7-yl)-1H-pyrazolo[3,4-d]pyrimidin-4-amine]
- IC50 [1, 3]: > 3980 nM

SMILES: Cc1ccccc1Cc1cc2ccc(-c3cn(C4CC4)c4ncnc(N)c34)c(F)c2cn1 [Example 38, 7-cyclopropyl-5-(8-fluoro-3-(2-methylbenzyl)isoquinolin-7-yl)-7H-pyrrolo[2,3-d]pyrimidin-4-amine]
- IC50 [1, 3]: 12.6 nM

SMILES: Nc1ncnc2c1c(-c1ccc3cc(Cc4cc(C(F)(F)F)ccc4F)ncc3c1F)cn2C1CC1 [Example 41, 7-cyclopropyl-5-(8-fluoro-3-(2-fluoro-5-(trifluoromethyl)benzyl)isoquinolin-7-yl)-7H-pyrrolo[2,3-d]pyrimidin-4-amine]
- IC50 [1, 3]: 100 nM

SMILES: CN(C)CCn1cc(-c2ccc3cc(Cc4cc(F)cc(F)c4)ncc3c2F)c2c(N)ncnc21 [Example 47, 5-(3-(3,5-difluorobenzyl)-8-fluoroisoquinolin-7-yl)-7-(2-(dimethylamino)ethyl)-7H-pyrrolo[2,3-d]pyrimidin-4-amine]
- IC50 [1, 3]: 1580 nM

SMILES: Nc1ncnc2c1c(-c1ccc3cc(Cc4cccc(Cl)c4F)ncc3c1F)cn2C1CC1 [Example 51, 5-(3-(3-chloro-2-fluorobenzyl)-8-fluoroisoquinolin-7-yl)-7-cyclopropyl-7H-pyrrolo[2,3-d]pyrimidin-4-amine]
- IC50 [1, 3]: 3.16 nM

SMILES: Nc1ncnc2c1c(-c1ccc3cc(Cc4cncc(F)c4)ncc3c1F)cn2C1CC1 [Example 53, 7-cyclopropyl-5-(8-fluoro-3-((5-fluoropyridin-3-yl)methyl)isoquinolin-7-yl)-7H-pyrrolo[2,3-d]pyrimidin-4-amine]
- IC50 [1, 3]: 631 nM

SMILES: Nc1ncnn2ccc(-c3ccc4cc(Cc5cc(F)cc(F)c5)ncc4c3F)c12 [Example 58, 5-(3-(3,5-difluorobenzyl)-8-fluoroisoquinolin-7-yl)pyrrolo[2,1-f][1,2,4]triazin-4-amine]
- IC50 [1, 3]: > 3980 nM

SMILES: Cn1cc(-c2ccc3c(c2)CCN3C(=O)Cc2cccc(C(F)(F)F)c2)c2c(N)ncnc21 [GSK2606414, 7-methyl-5-(1-{[3-(trifluoromethyl)phenyl]acetyl}-2,3-dihydro-1H-indol-5-yl)-7H-pyrrolo[2,3-d]pyrimidin-4-amine]
- neuroprotective effect and clinical signs of disease [2]: provide a neuroprotective effect and prevent clinical signs of disease
